Measurements reported in PubChem BioAssay (NCI).
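Step 1: Grow cells in 96-well plates. Step 2: Expose to compound for 48 hours at 5 concentrations. Step 3: Interpolate endpoints linearly; if unreached, use highest concentration. GI50: concentration for 50% inhibition of growth. TGI is the concentration that stops growth completely.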 Where a SMILES comes first, the peptide text is derived from it. The star is where a group is joined. Cbz = O=C(OCc1ccccc1)*; Bn = c1ccc(C*)cc1

Columns and labels:
Experiment in all cases: growth of human tumour cells (NCI), 48 h
IGROV1 ovarian = test system: IGROV1 ovarian
SK-MEL-5 melanoma = test system: SK-MEL-5 melanoma
SF-295 CNS = test system: SF-295 CNS
HCT-15 colon = test system: HCT-15 colon
SNB-75 CNS = test system: SNB-75 CNS
SF-268 CNS = test system: SF-268 CNS
NCI-H23 lung = test system: NCI-H23 lung
SK-OV-3 ovarian = test system: SK-OV-3 ovarian
OVCAR-3 ovarian = test system: OVCAR-3 ovarian
HOP-62 NSCLC = test system: HOP-62 NSCLC

`CC1C[C@]2(C[C@@H](C)C(=O)O2)OC2CC3(C)C4CCC5C(C)(C)OC(=O)CC[C@@]56C[C@@]46CC[C@]3(C)C12` (some centres not stated) was tested, and the TGI (IGROV1 ovarian) was over 100 µM, the TGI (SK-MEL-5 melanoma) was over 100 µM and the TGI (SF-295 CNS) was over 100 µM. For the same compound, the TGI (HCT-15 colon) was over 100 µM, the TGI (SNB-75 CNS) was over 100 µM and the TGI (SF-268 CNS) was over 100 µM. It also gave a TGI (NCI-H23 lung) of over 100 µM.

Compound `C1CSCCSCSCCS1` has a TGI (SK-OV-3 ovarian) of over 100 µM, a TGI (IGROV1 ovarian) of over 100 µM and a TGI (SK-MEL-5 melanoma) of over 100 µM. The TGI (SF-295 CNS) was over 100 µM, the TGI (HCT-15 colon) was over 100 µM and the TGI (OVCAR-3 ovarian) was over 100 µM. The TGI (SNB-75 CNS) was over 100 µM, the TGI (HOP-62 NSCLC) was over 100 µM and the TGI (SF-268 CNS) was over 100 µM. The TGI (NCI-H23 lung) was over 100 µM.

`CS(=O)(=O)c1ccc2nc(-c3ccc(O)cc3)sc2c1` gave a TGI (SK-OV-3 ovarian) of 31.3 µM, a TGI (IGROV1 ovarian) of 34.9 µM and a TGI (SK-MEL-5 melanoma) of 31.8 µM. It also gave a TGI (SF-295 CNS) of 30.3 µM, a TGI (HCT-15 colon) of 31.7 µM and a TGI (OVCAR-3 ovarian) of 31.8 µM. The TGI (SF-268 CNS) was 32.3 µM and the TGI (NCI-H23 lung) was 39.6 µM.

Compound `C[n+]1c2ccccc2c(CNCC(=O)O)c2ccccc21` has a TGI (SK-OV-3 ovarian) of 15.7 µM, a TGI (IGROV1 ovarian) of 22.6 µM and a TGI (SK-MEL-5 melanoma) of 14.4 µM. It also gave a TGI (SF-295 CNS) of 17.2 µM, a TGI (HCT-15 colon) of 4.94 µM and a TGI (OVCAR-3 ovarian) of 6.2 µM. It also gave a TGI (SNB-75 CNS) of 20.9 µM, a TGI (HOP-62 NSCLC) of 19.1 µM and a TGI (SF-268 CNS) of 1.9 µM. It also gave a TGI (NCI-H23 lung) of 24.8 µM.

`COC(=O)C(Cc1ccc(O)cc1)NC(=O)C(COCc1ccccc1)NC(=O)OCc1ccccc1` (configuration not stated) (Cbz-Ser(Bn)-Tyr-OMe; configuration not given here) showed a TGI (SK-OV-3 ovarian) of 31.4 µM, a TGI (IGROV1 ovarian) of 32.3 µM and a TGI (SK-MEL-5 melanoma) of 31.4 µM. For the same compound, the TGI (SF-295 CNS) was 35.3 µM, the TGI (HCT-15 colon) was 33.6 µM and the TGI (OVCAR-3 ovarian) was 31.8 µM. For the same compound, the TGI (SNB-75 CNS) was 29.9 µM, the TGI (HOP-62 NSCLC) was 33.6 µM and the TGI (SF-268 CNS) was 31.9 µM. It also gave a TGI (NCI-H23 lung) of 42.8 µM.

With `COc1ccc(-c2oc3cc(OC(C)=O)cc(OC(C)=O)c3c(=O)c2OC)cc1` the TGI (SK-OV-3 ovarian) was 80.6 µM, the TGI (IGROV1 ovarian) was 38 µM and the TGI (SK-MEL-5 melanoma) was 25 µM. It also gave a TGI (SF-295 CNS) of 37.8 µM, a TGI (HCT-15 colon) of over 100 µM and a TGI (OVCAR-3 ovarian) of 38.6 µM. For the same compound, the TGI (HOP-62 NSCLC) was 42.4 µM and the TGI (SF-268 CNS) was 46.9 µM.

`CCCCSCC(NC(=O)/C=C/c1c(C)[nH]c(=O)[nH]c1=O)C(=O)OC` (configuration not stated) was tested, and the TGI (SK-OV-3 ovarian) was 226 µM, the TGI (IGROV1 ovarian) was 316 µM and the TGI (SK-MEL-5 melanoma) was 176 µM. It also gave a TGI (SF-295 CNS) of 272 µM, a TGI (HCT-15 colon) of over 450 µM and a TGI (OVCAR-3 ovarian) of 77.2 µM. For the same compound, the TGI (SNB-75 CNS) was 241 µM, the TGI (HOP-62 NSCLC) was 252 µM and the TGI (SF-268 CNS) was 341 µM. It also gave a TGI (NCI-H23 lung) of 339 µM.

Compound `O=C1c2cccc(O)c2C(=O)c2c(O)cccc21` has a TGI (SK-OV-3 ovarian) of over 100 µM, a TGI (IGROV1 ovarian) of over 100 µM and a TGI (SF-295 CNS) of over 100 µM. For the same compound, the TGI (HCT-15 colon) was over 100 µM, the TGI (OVCAR-3 ovarian) was over 100 µM and the TGI (SNB-75 CNS) was over 100 µM. It also gave a TGI (HOP-62 NSCLC) of over 100 µM, a TGI (SF-268 CNS) of over 100 µM and a TGI (NCI-H23 lung) of over 100 µM.

`C[P+](c1ccccc1)(c1ccc(Cl)cc1)c1ccc(Cl)cc1` gave a TGI (SK-OV-3 ovarian) of over 100 µM, a TGI (IGROV1 ovarian) of 21.8 µM and a TGI (SK-MEL-5 melanoma) of 14.4 µM. It also gave a TGI (HCT-15 colon) of over 100 µM, a TGI (OVCAR-3 ovarian) of 10.5 µM and a TGI (SNB-75 CNS) of 46 µM. The TGI (HOP-62 NSCLC) was 70.4 µM, the TGI (SF-268 CNS) was over 100 µM and the TGI (NCI-H23 lung) was 31.6 µM.

Compound `CN(C)CCOc1cc2c(c3ccccc13)-c1ccccc1C2O` (configuration not stated) has a TGI (SK-OV-3 ovarian) of 30.1 µM, a TGI (IGROV1 ovarian) of 32.4 µM and a TGI (SK-MEL-5 melanoma) of 29.1 µM. The TGI (SF-295 CNS) was 48.7 µM, the TGI (HCT-15 colon) was 25.5 µM and the TGI (OVCAR-3 ovarian) was 30.1 µM. It also gave a TGI (SNB-75 CNS) of 24.7 µM, a TGI (HOP-62 NSCLC) of 29 µM and a TGI (SF-268 CNS) of 28.3 µM. The TGI (NCI-H23 lung) was 32.2 µM.

With `NC(CCP(=O)(O)O)C(=O)O` (configuration not stated) the TGI (IGROV1 ovarian) was over 100 µM, the TGI (SK-MEL-5 melanoma) was over 100 µM and the TGI (SF-295 CNS) was over 100 µM. It also gave a TGI (HCT-15 colon) of over 100 µM, a TGI (OVCAR-3 ovarian) of over 100 µM and a TGI (HOP-62 NSCLC) of over 100 µM. The TGI (SF-268 CNS) was over 100 µM and the TGI (NCI-H23 lung) was over 100 µM.

In the case of `N=C(N)c1ccc(-c2ccc(-c3ccc4ccccc4c3)s2)s1`, the GI50 (SK-OV-3 ovarian) is reported as 20.2 µM, the TGI (SK-OV-3 ovarian) is reported as 42.3 µM and the GI50 (SK-MEL-5 melanoma) is reported as 14.7 µM. The TGI (SK-MEL-5 melanoma) was 28 µM, the GI50 (SF-295 CNS) was 2.27 µM and the TGI (SF-295 CNS) was 5.99 µM. It also gave a GI50 (HCT-15 colon) of 1.69 µM, a TGI (HCT-15 colon) of 3.29 µM and a GI50 (OVCAR-3 ovarian) of 1.89 µM. It also gave a TGI (OVCAR-3 ovarian) of 3.7 µM, a GI50 (SNB-75 CNS) of 1.93 µM and a TGI (SNB-75 CNS) of 5.3 µM. For the same compound, the GI50 (HOP-62 NSCLC) was 2.08 µM, the TGI (HOP-62 NSCLC) was 5.24 µM and the GI50 (SF-268 CNS) was 2.25 µM. The TGI (SF-268 CNS) was 5.5 µM, the GI50 (NCI-H23 lung) was 2.96 µM and the TGI (NCI-H23 lung) was 11.1 µM.

Compound `COc1ccc(N2C(=O)/C(=C\c3ccccc3)SC2c2cc(OC)c(OC)c(OC)c2)cc1` (configuration not stated) has a TGI (SK-OV-3 ovarian) of over 100 µM, a TGI (SK-MEL-5 melanoma) of over 100 µM and a TGI (SF-295 CNS) of over 100 µM. For the same compound, the TGI (HCT-15 colon) was over 100 µM, the TGI (SNB-75 CNS) was 75.7 µM and the TGI (HOP-62 NSCLC) was over 100 µM. For the same compound, the TGI (SF-268 CNS) was over 100 µM and the TGI (NCI-H23 lung) was over 100 µM.

Compound `NC(=O)c1ccc([N+](=O)[O-])cc1` has a TGI (SK-OV-3 ovarian) of over 100 µM, a TGI (IGROV1 ovarian) of over 100 µM and a TGI (SK-MEL-5 melanoma) of over 100 µM. It also gave a TGI (SF-295 CNS) of over 100 µM, a TGI (HCT-15 colon) of over 100 µM and a TGI (OVCAR-3 ovarian) of over 100 µM. The TGI (SNB-75 CNS) was over 100 µM, the TGI (HOP-62 NSCLC) was over 100 µM and the TGI (SF-268 CNS) was over 100 µM. The TGI (NCI-H23 lung) was over 100 µM.

`c1ccc(-c2n(Cc3ccc4ccccc4c3)c3ccccc3[n+]2Cc2ccc3ccccc3c2)cc1` was tested, and the GI50 (SK-OV-3 ovarian) was 0.309 µM, the TGI (SK-OV-3 ovarian) was 1.08 µM and the GI50 (SK-MEL-5 melanoma) was 0.175 µM. The TGI (SK-MEL-5 melanoma) was 0.326 µM, the GI50 (SF-295 CNS) was 0.306 µM and the TGI (SF-295 CNS) was 1.11 µM. The GI50 (HCT-15 colon) was 1.39 µM, the TGI (HCT-15 colon) was 2.91 µM and the GI50 (OVCAR-3 ovarian) was 0.259 µM. For the same compound, the TGI (OVCAR-3 ovarian) was 1.03 µM, the GI50 (SNB-75 CNS) was 0.184 µM and the TGI (SNB-75 CNS) was 0.913 µM.

With `O=C(Nc1ccc(Cl)cc1)c1cc([N+](=O)[O-])ccc1O` the TGI (SK-OV-3 ovarian) was 25.4 µM, the TGI (IGROV1 ovarian) was 69.5 µM and the TGI (SK-MEL-5 melanoma) was 8.25 µM. It also gave a TGI (SF-295 CNS) of 30.4 µM, a TGI (HCT-15 colon) of 28.6 µM and a TGI (OVCAR-3 ovarian) of 7.56 µM. It also gave a TGI (SNB-75 CNS) of 20.2 µM, a TGI (HOP-62 NSCLC) of 9.26 µM and a TGI (SF-268 CNS) of 47.7 µM. For the same compound, the TGI (NCI-H23 lung) was 6.66 µM.

With `C=CCOCCC(CC=C)C(=O)CC(=O)OC` (configuration not stated) the TGI (SK-OV-3 ovarian) was over 100 µM, the TGI (IGROV1 ovarian) was over 100 µM and the TGI (SK-MEL-5 melanoma) was over 100 µM. The TGI (SF-295 CNS) was over 100 µM, the TGI (HCT-15 colon) was over 100 µM and the TGI (OVCAR-3 ovarian) was over 100 µM. The TGI (SNB-75 CNS) was over 100 µM, the TGI (HOP-62 NSCLC) was over 100 µM and the TGI (SF-268 CNS) was over 100 µM. The TGI (NCI-H23 lung) was over 100 µM.
